The supplement of paper PMC11208160

Assay: recombinant barcode read abundance after kanamycin selection (control-corrected) (log10(CPM+1)); higher = more efficient recombination; sequences stand for … in AGTGCAGAGAAAATCGGCCAGTTTTCTCTGCCTGCAGTCCGCATGCCGT…AGATTTATGCAGCGGACTGCCTTTCTCCCAAAGTGATAAACCGGACAGTATCATGGACCGGTTTTCCCGGTAATCCGTATTTGCAAGGTTGGTTTCACT; site = the 11-nt target
Summary of the method: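 In a pooled screen in E. coli, targets were paired with target-binding loops of the IS621 bridge RNA. Each oligo carried a promoter, a target, a barcode and the first 104 bridge RNA bases driven by J23119, and was Gibson-cloned into a vector holding the remaining 73 bp and a T7-inducible recombinase before co-electroporation with a donor plasmid. Duplicate platings went onto chloramphenicol/ampicillin LB agar as the control or onto chloramphenicol/ampicillin/kanamycin with 0.1 mM IPTG. Recombination efficiency is the averaged, control-corrected count per million of barcodes at recombinant junctions, given as log10(CPM+1).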
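Further: IS621 recombinase and bridge RNA in Escherichia coli cells.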

| Sequence | recombinant barcode read abundance (log10) |
| --- | --- |
| TAGGATTCTTGGGTTCTAACCTGTTGCGC (site TAGGATTCTGC) | 2.55 |
| TAGGATTCTTGGGTTCTAACCTGTTGCGT (site TAGGATGCTAC) | 0.144 |
| TAGGATTCTTGGGTTCTAACCTGTTGCGT (site TAGGATTCTAC) | 2.61 |
| TAGGCATCTTGGGTTCTAACCTGTTGCTC (site TAGACATCTGA) | 0.206 |
| TAGGCATCTTGGGTTCTAACCTGTTGCTC (site TAGCCATCTGA) | 0.36 |
| TAGGCATCTTGGGTTCTAACCTGTTGCTC (site TAGGCATCTGA) | 0.95 |
| TAGGCATCTTGGGTTCTAACCTGTTGCTC (site TAGTCATCTGA) | 0.115 |
| TAGGCCACTTGGGTTCTAACCTGTTGCTT (site TAGGCCACTAA) | 1.61 |
| TAGGCCACTTGGGTTCTAACCTGTTGCTT (site TAGGCCACTAC) | 1.17 |
| TAGGCCACTTGGGTTCTAACCTGTTGCTT (site TAGGCCACTAG) | 0.36 |
| TAGGCCACTTGGGTTCTAACCTGTTGCTT (site TAGGCCACTAT) | 0.539 |
| TAGGCGACTTGGGTTCTAACCTGTTGCCA (site ACCTTAGCTAA) | 0.119 |
| TAGGCGACTTGGGTTCTAACCTGTTGCCA (site TAGGCGACTTG) | 0.186 |
| TAGGCTACTTGGGTTCTAACCTGTTGCAG (site TAGGCTACTAT) | 0.206 |
| TAGGCTACTTGGGTTCTAACCTGTTGCAG (site TAGGCTACTCT) | 1.97 |
| TAGGCTACTTGGGTTCTAACCTGTTGCAG (site TAGGCTACTGT) | 0.0351 |
| TAGGCTACTTGGGTTCTAACCTGTTGCAG (site TAGGCTACTTT) | 0.216 |
| TAGGCTACTTGGGTTCTAACCTGTTGCAT (site TAGGCTACTAT) | 1.06 |
| TAGGCTACTTGGGTTCTAACCTGTTGCAT (site TAGGCTACTCT) | 0.301 |
| TAGGCTACTTGGGTTCTAACCTGTTGCAT (site TAGGCTACTGT) | 0.132 |
| TAGGCTACTTGGGTTCTAACCTGTTGCAT (site TAGGCTACTTT) | 0.00693 |
| TAGGGAGCTTGGGTTCTAACCTGTTGCAT (site TAGAGAGCTCT) | 0.0779 |

| Sequence | recombinant barcode read abundance (log10) |
| --- | --- |
| TAGGGAGCTTGGGTTCTAACCTGTTGCAT (site TAGGGAGCTAT) | 2.8 |
| TAGGGCACTTGGGTTCTAACCTGTTGCCG (site TAGGGCACTCA) | 0.119 |
| TAGGGCACTTGGGTTCTAACCTGTTGCCG (site TAGGGCACTCG) | 1.58 |
| TAGGGCCCTTGGGTTCTAACCTGTTGCCT (site AAGGGCCCTAG) | 0.111 |
| TAGGGCCCTTGGGTTCTAACCTGTTGCCT (site CAGGGCCCTAG) | 0.0445 |
| TAGGGCCCTTGGGTTCTAACCTGTTGCCT (site GAGGGCCCTAG) | 0.0503 |
| TAGGGCCCTTGGGTTCTAACCTGTTGCCT (site TAGGGCCCTAG) | 1.15 |
| TAGGGTACTTGGGTTCTAACCTGTTGCGC (site ACAACCTCTCG) | 0.0219 |
| TAGGGTACTTGGGTTCTAACCTGTTGCGC (site TAGGGTACTGC) | 2.85 |
| TAGGTACCTTGGGTTCTAACCTGTTGCAT (site TAGGTACCTAT) | 1.98 |
| TAGGTACCTTGGGTTCTAACCTGTTGCAT (site TAGGTCCCTAT) | 0.223 |
| TAGGTACCTTGGGTTCTAACCTGTTGCAT (site TAGGTGCCTAT) | 0.0753 |
| TAGGTACCTTGGGTTCTAACCTGTTGCAT (site TAGGTTCCTAT) | 0.0968 |
| TAGGTCGCTTGGGTTCTAACCTGTTGCAT (site TAGATCGCTCT) | 0.171 |
| TAGGTCGCTTGGGTTCTAACCTGTTGCAT (site TAGGTCGCTAT) | 2.48 |
| TAGGTGACTTGGGTTCTAACCTGTTGCGG (site TAGGTGACTCC) | 2.13 |
| TAGGTGACTTGGGTTCTAACCTGTTGCGG (site TAGGTGCCTCC) | 0.285 |
| TAGGTGGCTTGGGTTCTAACCTGTTGCCT (site TAGGTGGCTAG) | 0.463 |
| TAGGTGGCTTGGGTTCTAACCTGTTGCCT (site TGGGCGGCTAG) | 0.105 |
| TAGGTGTCTTGGGTTCTAACCTGTTGCCT (site TAAGTGTCTAG) | 1.04 |
| TAGGTGTCTTGGGTTCTAACCTGTTGCCT (site TACGTGTCTAG) | 0.181 |
